Reference: PMC3789969, “The Allosteric Role of the AAA^+ Domain of ChlD Protein from the Magnesium Chelatase of Synechocystis Species PCC 6803” (The Journal of Biological Chemistry, 2013)

Target: T1, magnesium chelatase (ChlI, His6-ChlD, His6-ChlH); porphyrin site (Synechocystis sp. PCC 6803, UniProt P73020)
T1 construct: recombinant from E. coli; His6 tags on ChlD and ChlH; copies are assay ratio; with Magnesium-chelatase subunit ChlI; Magnesium-chelatase subunit ChlD
Assay: continuous fluorometric MgDIX formation assay, Michaelis-Menten fit
Assay type: biochemical
Conditions: 5 mM ATP, Mg2+ (mutant not saturated with Mg2+), pH 7.7, 34 °C, I 0.1

T1 sequence (P51634 whole entry, form open): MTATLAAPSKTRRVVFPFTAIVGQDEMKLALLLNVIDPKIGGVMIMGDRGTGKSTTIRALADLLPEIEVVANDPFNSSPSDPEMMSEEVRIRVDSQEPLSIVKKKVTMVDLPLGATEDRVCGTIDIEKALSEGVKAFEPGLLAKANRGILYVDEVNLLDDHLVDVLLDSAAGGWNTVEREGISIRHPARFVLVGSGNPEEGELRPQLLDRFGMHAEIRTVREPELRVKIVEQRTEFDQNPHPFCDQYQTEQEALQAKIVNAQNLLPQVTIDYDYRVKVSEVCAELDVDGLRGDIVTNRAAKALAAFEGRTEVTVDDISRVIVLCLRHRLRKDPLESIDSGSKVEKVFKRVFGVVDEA
T1 sequence (P73020 entry or part of it, form open): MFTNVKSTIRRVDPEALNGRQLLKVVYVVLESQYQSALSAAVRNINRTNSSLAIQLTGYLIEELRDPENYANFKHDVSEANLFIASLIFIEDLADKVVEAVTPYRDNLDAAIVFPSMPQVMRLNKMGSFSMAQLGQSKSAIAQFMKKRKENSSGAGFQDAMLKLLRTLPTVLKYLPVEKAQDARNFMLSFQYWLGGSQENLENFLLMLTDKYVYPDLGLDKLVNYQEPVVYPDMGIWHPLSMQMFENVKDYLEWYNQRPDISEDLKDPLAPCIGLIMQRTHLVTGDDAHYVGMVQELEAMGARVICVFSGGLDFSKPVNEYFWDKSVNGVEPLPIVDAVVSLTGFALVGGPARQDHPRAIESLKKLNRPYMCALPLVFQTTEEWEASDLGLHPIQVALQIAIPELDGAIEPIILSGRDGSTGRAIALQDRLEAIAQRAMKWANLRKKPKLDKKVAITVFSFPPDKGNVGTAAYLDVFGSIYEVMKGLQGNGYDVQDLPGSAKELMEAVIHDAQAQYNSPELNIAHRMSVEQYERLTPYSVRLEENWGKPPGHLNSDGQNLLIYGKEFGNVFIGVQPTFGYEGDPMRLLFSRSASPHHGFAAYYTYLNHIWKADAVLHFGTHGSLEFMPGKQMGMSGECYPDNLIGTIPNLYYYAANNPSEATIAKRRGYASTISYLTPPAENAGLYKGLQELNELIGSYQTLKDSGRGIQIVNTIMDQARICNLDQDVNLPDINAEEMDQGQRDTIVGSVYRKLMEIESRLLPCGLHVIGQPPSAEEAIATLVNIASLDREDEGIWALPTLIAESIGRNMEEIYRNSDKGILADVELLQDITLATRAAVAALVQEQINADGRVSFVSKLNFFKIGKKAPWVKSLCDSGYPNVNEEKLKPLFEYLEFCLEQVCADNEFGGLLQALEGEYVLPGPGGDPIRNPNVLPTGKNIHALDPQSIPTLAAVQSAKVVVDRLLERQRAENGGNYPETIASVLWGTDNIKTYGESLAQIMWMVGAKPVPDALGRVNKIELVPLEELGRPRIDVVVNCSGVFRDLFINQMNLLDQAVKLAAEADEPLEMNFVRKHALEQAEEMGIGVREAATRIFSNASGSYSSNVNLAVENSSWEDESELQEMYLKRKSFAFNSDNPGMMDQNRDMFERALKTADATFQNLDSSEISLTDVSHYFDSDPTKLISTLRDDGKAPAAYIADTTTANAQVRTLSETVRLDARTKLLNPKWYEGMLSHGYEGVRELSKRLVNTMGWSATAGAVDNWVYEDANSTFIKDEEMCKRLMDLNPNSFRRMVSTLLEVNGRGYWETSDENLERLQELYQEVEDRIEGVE
T1 sequence (P72772 whole entry R289A, form open, further chain): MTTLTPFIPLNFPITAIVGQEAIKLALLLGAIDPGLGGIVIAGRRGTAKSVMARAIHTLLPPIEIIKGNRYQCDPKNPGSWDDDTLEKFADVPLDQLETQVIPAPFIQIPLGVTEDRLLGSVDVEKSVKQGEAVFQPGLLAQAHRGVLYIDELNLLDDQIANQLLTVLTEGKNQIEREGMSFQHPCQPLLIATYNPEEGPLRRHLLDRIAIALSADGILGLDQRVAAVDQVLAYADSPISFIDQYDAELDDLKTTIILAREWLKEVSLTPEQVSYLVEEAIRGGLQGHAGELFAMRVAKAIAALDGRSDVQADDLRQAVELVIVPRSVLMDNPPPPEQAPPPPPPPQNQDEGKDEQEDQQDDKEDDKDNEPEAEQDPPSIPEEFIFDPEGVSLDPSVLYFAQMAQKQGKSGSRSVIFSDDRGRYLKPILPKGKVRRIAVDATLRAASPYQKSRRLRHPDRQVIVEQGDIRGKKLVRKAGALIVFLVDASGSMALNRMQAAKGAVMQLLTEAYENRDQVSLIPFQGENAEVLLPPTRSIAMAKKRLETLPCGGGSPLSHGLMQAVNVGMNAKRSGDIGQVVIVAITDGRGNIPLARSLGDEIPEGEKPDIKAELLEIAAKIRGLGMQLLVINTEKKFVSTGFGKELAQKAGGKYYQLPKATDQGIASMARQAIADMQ

- Km: 0.99 ± 0.12 µM
Structure (SMILES): CC1=C(CCC(=O)O)c2cc3nc(cc4[nH]c(cc4C)cc4[nH]c(cc1n2)cc4C)C(C)=C3CCC(=O)O [deuteroporphyrin IX]
